Measured values reported in publication PMC6931124, “NPY1R-targeted peptide-mediated delivery of a dual PPARα/γ agonist to adipocytes enhances adipogenesis and prevents diabetes progression” (Molecular Metabolism, 2019).

Experiments:
[1] = HbA1C; type: in vivo; settings: db/db mice, 2.5 μM/kg/day, 8 days
Protocol: (§1) All of the experiments were performed according to the animal ethical laws of the state Saxony, Germany, and were approved by the local animal ethics review board (Landesdirektion Sachsen, Leipzig, Germany). Female db/db mice 12–15 weeks of age were purchased from Taconic (Denmark) and housed in groups of 5 in temperature- and humidity-controlled facilities in a 12 h:12 h light–dark cycle and had free access to tap water and food (regular chow, Sniff, Soest, Germany). Three out of seven groups served as controls (N = 15, see Table 1). The 5 db/db mice were untreated and 10 db/db mice were vehicle treated either orally or intraperitoneally (i.p.). […]
(§2) All of the mice were monitored for 9 days during the treatment period. Body weight, food intake, and water uptake were recorded daily and body composition (lean body mass and whole body fat mass) was recorded at the beginning, middle, and end of the study in the conscious mice using an EchoMRI system (Echo Medical Systems, Houston, TX, USA). At the beginning and end of the treatment period, the HbA1c levels were determined from 5 μl of whole venous blood samples using an automated chemical analyzer at the Institute of Laboratory Medicine and Clinical Chemistry and beta-ketone using an automated glucose monitor (FreeStyle Precision H, Abbott GmbH, Ludwigshafen, Germany). […]

[2] = Rectal body temperature; type: in vivo; settings: db/db mice, 2.5 μM/kg/day, 8 days
Protocol: as §1, §2

[3] = Serum adiponectin; type: in vivo; settings: db/db mice, 2.5 μmol/kg/day, 8 days; ELISA; n = 5
Protocol: as §1, with “(i.p.). One additional group (n = 5) of lean C57BL/6NTac mice was used as a metabolically healthy control group.” for “(i.p.).”
(§3) Serum insulin (mouse insulin ELISA, Mercodia, Uppsala, Sweden), adiponectin (mouse adiponectin ELISA, AdipoGen, San Diego, CA, USA), leptin (mouse leptin ELISA, Crystal Chem, Downers Grove, IL, USA), and Mcp-1 (mouse/rat CCL2/JE/Mcp-1 Quantikine ELISA, R&D Systems, Minneapolis, MN, USA) levels were analyzed via ELISA according to the manufacturer's instructions. Serum concentrations of TG, FFA, and cholesterol were measured by an automatic chemical analyzer at the Institute of Laboratory Medicine and Clinical Chemistry.

[4] = Plasma triglycerides; type: in vivo; settings: db/db mice, 2.5 μmol/kg/day, 8 days; n = 5
Protocol: as §1, with “(i.p.). One additional group (n = 5) of lean C57BL/6NTac mice was used as a metabolically healthy control group.” for “(i.p.).”
as §3

[5] = system: ob/ob mice; settings: free systemically administered tesa; ref [43]; cited from earlier work
[6] = system: obese Zucker rats; settings: free systemically administered tesa; ref [43]; cited from earlier work
[7] = system: db/db mice; settings: ref Cha et al. [93]; cited from earlier work
From the text: To strengthen this finding, we examined the expression of the PPARγ-responsive genes adiponectin, Fabp4, and Cidec [[71], [72], [73], [74],[88], [89], [90], [91]]. Adiponectin may mediate the beneficial effects of PPARγ agonists for the treatment of diabetes, as it is an insulin-sensitizing adipokine that affects hepatic glucose output and decre ...

Structure (SMILES): CCO[C@@H](Cc1ccc(OCCc2ccc(OS(C)(=O)=O)cc2)cc1)C(=O)O [tesa, tesaglitazar]
- HbA1C change ([1]; vehicle/untreated increased by approximately 2%, n = 5): graduated reduced increase
- diabetes progression ([1]; 12-16 weeks old): deceleration of disease progression
- body temperature, in words [2]: normalized
- adiponectin, serum [3]: normalization of the plasma concentration
- triglycerides [4]: normalization
- anti-diabetic effect in ob/ob mice [5]: reduce hypertriglyceridemia, hyperinsulinemia, and hyperglycemia in ob/ob mice
- insulin sensitivity in obese Zucker rats [6]: restore insulin sensitivity in obese Zucker rats
- adiponectin mRNA expression and plasma levels [7]: induces increased adiponectin mRNA expression and plasma levels in db/db mice
